Values joined by “and” are separate entries in the source; they are usually repeats but may differ in a detail not shown here. Equal values may be shown once. Read-outs that look alike come from different tables or passages of the source.
Legend:
[1] = tested on: B10 mice; test: Glucose phosphate isomerase-1 (GPI-1) typing of platelets and erythrocytes in mixed allogeneic chimeras; assay type: in vivo, mouse; settings: 5 Gy TBI-based regimen, individual animals, 2 months
Procedure: Peripheral blood (0.9 ml) was collected into heparinized microcentrifuge vials. The blood was spun for four seconds at the maximal setting (14,000 rpm) of an Eppendorf microcentrifuge (Beckman #5415). This setting was chosen through an optimization strategy in which force and times were varied as a function of retrieved platelet number. This duration included the acceleration phase, which is incomplete when power is curtailed at the four second mark. After this, the samples were allowed to slow to a halt without braking. Platelet-rich plasma was then carefully aspirated with a disposable polyethylene pipette, avoiding any disturbance of the buffy coat. Triplicate platelet counts were obtained using a Coulter Model ZB1 counter (Hialeah, Fla.), and the average (variation 5%) calculated. […]
Typing of red blood cell (RBC) and platelet phenotypes was performed using the GPI-1 assay (Ildstad, et al., 1991, J Exp Med 174:467). The precipitation pattern for BALB/c mouse and B10 mouse were performed as controls and determined to be totally disparate. […] Percentages were determined by comparison with the positive control. […] In titrations performed to determine the sensitivity of this assay, as low as 2% of BALB/c RBC titrated into normal B10RBC could be reliably detected (Ildstad, et al., 1991, J Exp Med 174:467). […]

[2] = tested on: CD8-KO mice
Source text: (§1) Three to five week old C57BL/10-Cd4^tml(CD4-KO;H2^b, n=5), C57BL/6J-CD4^tm/mak (CD4-KO; H2^b, n=15) CD57BL/6JCD8α^tm/mak (CD8-KO; H2^b, n=16), C57BL/6J (B6; H2^b, n=6), C57BL/6-6d4^tm/mak (CD4-KO) and C57BL/6-Cd8^tm/mak (CD8-KO)recipient mice, as well as three to five week old B10.BR/SgSnJ (B10.BR, H2^k) donor mice were purchased from the Jackson Laboratory (Bar Harbor, Me.). Knock-out mice were housed in a special pathogen-free barrier facility, while donor mice were housed in a conventional barrier animal facility. Mice were cared for according to National Institute of Health animal care guidelines.
(§2) Bone marrow was prepared as previously described (Ildstad and Sachs, Nature, 307:168 (1984)). Briefly, B10.BR donor mice were euthanized and tibias and femurs harvested. Bone marrow was expelled from the bones with Media 199 (Gibco, Grand Island, N.Y.) containing 10 μg/ml Gentamicin (Gibco) (MEM). The cells were filtered through sterile nylon mesh with 100 μm pores, spun for minutes at 200×g and 4° C., and resuspended in MEM. A cell count was performed and the cells were diluted to a final concentration of 15×10^6 bone marrow cells per 1 ml of MEM.
(§3) CD4-KO and CD8-KO mice were treated with TBI from a cesium source (Gamma-cell 40, Nordion, Ontario, Canada). Doses from 0 to 300 cGy were administered according to the experimental groups. Animals were transplanted with 1 ml MEM containing 15×10^6 B10.BR bone marrow cells via lateral tail vein injection within 4 hours after irradiation.
(§4) Peripheral blood was obtained from the mice by tail-vein bleeding. The blood was collected in heparinized Eppendorf tubes 28 days, 3 months and 6 months after BMT. Fifty μl of whole blood were incubated for 7 minutes with 2 ml of lysing buffer (8.29 g of NH4Cl, 1.0 g of KHCO3 and 0.0372 g Na2EDTA in 1 liter H2O to lyse red blood cells. The cells were washed with 2 ml FACS medium (0.36 g NaHCO3, 1.0 g NaN3 and 1.0 g bovine serum albumin in 1 liter Hanks Balanced Salt Solution and spun at 200×g for 10 minutes at 4° C. After the supernatant was carefully decanted, cells were mixed with 10 μl diluted monoclonal antibodies (mAb; details discussed infra) and incubated for 30 minutes at 4° C. in the dark. The appropriate dilution for the use of the mAb was determined in titration experiments prior to use. After the incubation, the cells were washed twice with 2 ml of FACS medium and spun at 200×g for minutes at 4° C. Finally, the cells were fixed with 1% paraformaldehyde in PBS. The analyses were carried out on a FACS-Calibur (Becton Dickinson, Mountain View, Calif.) with CellQuest software (Becton Dickinson).
(§5) PBL were stained with mAb specific for MHC Class I antigens of donor (FITC conjugated anti-H2K^k, 36-7-5, mouse IgG1) and recipient (PE-conjugated anti-H2K^b, AF6-88.5, mouse IgG2a) origin to determine the percentage of donor chimerism. Multi-lineage engraftment was assessed by staining with biotinylated anti-H2K^k (36-7-5, mouse IgG1), FITC-conjugated anti-H2K^b (AF6-88.5, mouse IgG2a) and PE-conjugated lineage markers 3 months after BMT. The biotinylated antibody was recovered with Streptavidin-Allophycocyanin (SA-APC). The following antibodies were used as lineage markers: anti-GR-1 (RB6-8C5, rat IgG2^b); anti-MAC-1 (M1/70, rat IgG2^b); anti-CD4 (RM4-5, rat IgG2a); anti-CD8α (53-6.7, rat IgG2a); anti-B220 (RA3-6B2, rat IgG2a); anti-NK1.1 (PK136, mouse IgG2a); anti-TCR-β chain (H57-597, hamster IgG); and anti-γδ-TCR (GL3, hamster IgG). Non-specific background staining was controlled for by using isotype control antibodies directed against irrelevant antigens and conjugated with the same color as the experimental antibody (i.e., anti-TNP mouse IgG2a conjugated with PE served as isotype control for PE-conjugated anti-H2K^b mouse IgG2a). All mAb were obtained from PharMingen (San Diego, Calif.). SA-APC was purchased from Becton Dickinson (Mountain View, Calif.).

[3] = tested on: C57BL/6J mice; settings: C57BL/6J (n=6); 300 cGy TBI + 200 mg/kg CyP
Source text: as §1, §2, §3, §4, §5

O=P1(N(CCCl)CCCl)NCCCO1 (centres unmarked) [CyP, cyclophosphamide]
% BALB/c RBC [1]: 100%
% BALB/c platelets [1]: 71% and 78% and 69% and 31%
animals with donor chimerism ([2]; 200 mg/kg CyP alone without irradiation, 28 days after BMT): 6 of 6 and Six of 6 and 6 out of 6
% animals that engrafted ([2]; C57BL/6-Cd8a tm/mak, 300 cGy TBI + 200 mg/kg CyP day 2): 100%
level of donor chimerism ([2]; CyP and 100 cGy TBI (n=6)): 11±0.4%
level of donor chimerism ([2]; CyP and 200 cGy TBI (n=6)): 32.7±1.5%
average level of donor chimerism ([2]; CyP and 300 cGy TBI (n=16)): 45.7%±2.5
% animals that engrafted [3]: 0%
